# Experiments:
# Test in all cases: relative viability (nuclei count vs DMSO), 5 days (fraction); higher = more cells survive
# [1] = compound: COc1cc(Nc2ncc3c(n2)-c2ccc(Cl)cc2C(c2c(F)cccc2OC)=NC3)ccc1C(=O)O [Alisertib] + O=C(CCCCCCC(=O)Nc1ccccc1)NO [Vorinostat] (partner 1 µM)
# Outline: (§1)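 Lung cancer cell lines were seeded in 1536-well plates and dosed by pin tool the next day, with either a single drug or a fixed anchor-drug dose combined with five library-drug doses (not always all listed) spaced in √10 steps. Five days later, one step fixed the cells and stained their nuclei (final 0.05% Triton X-100, 1% formaldehyde, 1 ug/ml Hoechst), and nuclei were counted on 4× images. Relative viability is the nuclei count in treated wells divided by the count in vehicle wells, and each value is the median of duplicate plates.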
# [2] = compound: COc1cc(Nc2ncc3c(n2)-c2ccc(Cl)cc2C(c2c(F)cccc2OC)=NC3)ccc1C(=O)O [Alisertib] + CC1(C)CCC(c2ccc(Cl)cc2)=C(CN2CCN(c3ccc(C(=O)NS(=O)(=O)c4ccc(N[C@H](CCN5CCOCC5)CSc5ccccc5)c(S(=O)(=O)C(F)(F)F)c4)cc3)CC2)C1 [Navitoclax] (partner 0.5 µM)
# Outline: as §1
# [3] = compound: COc1cc(Nc2ncc3c(n2)-c2ccc(Cl)cc2C(c2c(F)cccc2OC)=NC3)ccc1C(=O)O [Alisertib] + Nc1nc2[nH]cc(CCc3ccc(C(=O)N[C@@H](CCC(=O)O)C(=O)O)cc3)c2c(=O)[nH]1 [Pemetrexed] (partner 0.2 µM)
# Outline: as §1
# [4] = compound: COc1cc(Nc2ncc3c(n2)-c2ccc(Cl)cc2C(c2c(F)cccc2OC)=NC3)ccc1C(=O)O [Alisertib] + C[C@]1(O)C[C@@H](c2nc(-c3ccc4ccc(-c5ccccc5)nc4c3)c3c(N)nccn32)C1 [Linsitinib] (partner 1 µM)
# Outline: as §1
Cell Line,relative viability ([1]; first compound 0.005 µM),relative viability ([1]; first compound 0.01581 µM),relative viability ([1]; first compound 0.05 µM),relative viability ([1]; first compound 0.1581 µM),relative viability ([1]; first compound 0.5 µM),relative viability ([2]; first compound 0.005 µM),relative viability ([2]; first compound 0.01581 µM),relative viability ([2]; first compound 0.05 µM),relative viability ([2]; first compound 0.1581 µM),relative viability ([2]; first compound 0.5 µM),relative viability ([3]; first compound 0.005 µM),relative viability ([3]; first compound 0.01581 µM),relative viability ([3]; first compound 0.05 µM),relative viability ([3]; first compound 0.1581 µM),relative viability ([3]; first compound 0.5 µM),relative viability ([4]; first compound 0.005 µM),relative viability ([4]; first compound 0.01581 µM),relative viability ([4]; first compound 0.05 µM),relative viability ([4]; first compound 0.1581 µM),relative viability ([4]; first compound 0.5 µM)
CAL-12T,0.506,0.592,0.262,0.189,0.169,1.15,0.568,0.208,0.141,0.165,1.14,1.15,0.242,0.235,0.176,0.741,0.603,0.187,0.157,0.162
COR-L23,0.347,0.35,0.151,0.09,0.0909,0.921,0.965,0.576,0.198,0.105,0.197,0.196,0.189,0.179,0.134,0.794,0.799,0.401,0.178,0.121
COR-L 105,0.687,0.701,0.496,0.302,0.321,0.909,0.686,0.532,0.273,0.287,1.08,0.995,0.952,0.607,0.298,0.879,0.722,0.682,0.332,0.241
EKVX,0.684,0.551,0.285,0.263,0.319,0.924,0.837,0.589,0.162,0.15,0.364,0.377,0.266,0.172,0.187,0.942,0.831,0.344,0.211,0.183
EMC-BAC-2,0.28,0.257,0.202,0.186,0.151,1.08,0.978,0.362,0.296,0.18,0.445,0.429,0.447,0.405,0.3,0.752,0.595,0.298,0.279,0.202
EPLC-272H,0.454,0.401,0.248,0.104,0.132,1.11,0.962,0.368,0.346,0.147,0.284,0.245,0.172,0.138,0.118,0.998,0.865,0.921,0.3,0.131
H3255,0.8,0.822,0.656,0.337,0.264,0.484,0.415,0.355,0.0997,0.0929,0.516,0.572,0.457,0.309,0.255,0.898,0.832,0.418,0.192,0.164
HARA,0.44,0.131,0.0659,0.0632,0.0823,1.15,1.14,0.544,0.281,0.0564,0.262,0.211,0.26,0.21,0.125,1.03,0.919,0.361,0.189,0.0844
HCC-15,0.777,0.588,0.201,0.167,0.134,0.657,0.517,0.27,0.12,0.103,0.234,0.212,0.187,0.143,0.135,0.863,0.725,0.275,0.159,0.113
HCC-44,1.05,0.784,0.397,0.387,0.339,1.04,0.949,0.509,0.412,0.14,0.566,0.601,0.545,0.45,0.394,0.73,0.683,0.42,0.328,0.113
HCC-78,0.369,0.281,0.234,0.241,0.217,0.681,0.514,0.176,0.131,0.131,0.889,0.909,0.895,0.959,0.926,0.412,0.418,0.183,0.15,0.187
HCC-366,0.171,0.0448,0.0208,0.0312,0.0381,0.976,1.04,0.094,0.0103,0.019,0.169,0.131,0.0451,0.0421,0.0514,0.688,0.611,0.043,0.0079,0.0142
HCC-827,0.779,0.717,0.753,0.29,0.274,1.01,1,0.545,0.324,0.249,0.277,0.264,0.25,0.232,0.173,0.908,0.928,0.543,0.434,0.316
HOP-62,0.497,0.443,0.174,0.102,0.138,0.966,0.919,0.214,0.139,0.0669,0.282,0.283,0.204,0.171,0.112,0.551,0.853,0.305,0.203,0.155
LC-2-ad,0.454,0.313,0.24,0.177,0.161,0.328,0.159,0.0861,0.114,0.0846,0.263,0.228,0.215,0.177,0.175,0.643,0.399,0.187,0.135,0.121
LCLC-97TM1,0.524,0.515,0.135,0.0952,0.0792,0.523,0.353,0.121,0.116,0.115,0.162,0.173,0.186,0.118,0.0781,0.197,0.185,0.135,0.114,0.0896

Cell Line,relative viability ([1]; first compound 0.005 µM),relative viability ([1]; first compound 0.01581 µM),relative viability ([1]; first compound 0.05 µM),relative viability ([1]; first compound 0.1581 µM),relative viability ([1]; first compound 0.5 µM),relative viability ([2]; first compound 0.005 µM),relative viability ([2]; first compound 0.01581 µM),relative viability ([2]; first compound 0.05 µM),relative viability ([2]; first compound 0.1581 µM),relative viability ([2]; first compound 0.5 µM),relative viability ([3]; first compound 0.005 µM),relative viability ([3]; first compound 0.01581 µM),relative viability ([3]; first compound 0.05 µM),relative viability ([3]; first compound 0.1581 µM),relative viability ([3]; first compound 0.5 µM),relative viability ([4]; first compound 0.005 µM),relative viability ([4]; first compound 0.01581 µM),relative viability ([4]; first compound 0.05 µM),relative viability ([4]; first compound 0.1581 µM),relative viability ([4]; first compound 0.5 µM)
LK-2,0.229,0.326,0.167,0.176,0.186,0.859,0.722,0.356,0.181,0.225,0.286,0.236,0.188,0.141,0.148,0.519,0.454,0.337,0.206,0.175
LOU-NH91,0.834,0.821,0.602,0.422,0.371,0.79,0.731,0.551,0.326,0.271,0.428,0.385,0.369,0.349,0.354,0.977,0.941,0.818,0.491,0.403
LU99A,0.467,0.428,0.177,0.16,0.187,0.846,0.634,0.206,0.211,0.123,0.205,0.193,0.185,0.161,0.145,0.532,0.511,0.193,0.177,0.168
LXF-289,0.587,0.493,0.189,0.139,0.188,0.847,0.586,0.191,0.173,0.137,0.794,0.61,0.376,0.169,0.174,0.843,0.814,0.21,0.194,0.116
NCI-H23,0.456,0.24,0.132,0.153,0.149,0.677,0.562,0.334,0.175,0.143,0.489,0.346,0.271,0.213,0.212,0.621,0.545,0.228,0.191,0.155
NCI-H322M,0.806,0.864,0.772,0.502,0.514,1.16,1.3,1.13,0.576,0.35,0.588,0.628,0.561,0.4,0.427,0.895,0.883,0.435,0.459,0.356
NCI-H441,0.692,0.723,0.373,0.217,0.185,0.925,0.365,0.106,0.158,0.132,0.288,0.279,0.249,0.145,0.142,0.504,0.333,0.243,0.129,0.129
NCI-H460,0.683,0.527,0.0348,0.039,0.0281,1.13,0.815,0.471,0.0264,0.0172,0.0584,0.0653,0.0683,0.0474,0.0488,0.786,0.54,0.162,0.027,0.0144
NCI-H520,0.588,0.455,0.325,0.276,0.208,1.19,0.66,0.386,0.272,0.251,0.653,0.491,0.346,0.273,0.253,0.805,0.667,0.423,0.308,0.22
NCI-H596,0.514,0.655,0.616,0.488,0.311,,0.906,1.07,0.808,0.199,0.504,0.506,0.473,0.447,0.38,,1.02,0.969,0.967,0.404
NCI-H647,0.49,0.156,0.106,0.112,0.0745,1.05,1.06,0.293,0.169,0.0658,0.155,0.178,0.122,0.0903,0.0745,1.15,0.883,0.373,0.287,0.0691
NCI-H838,0.597,0.461,0.294,0.185,0.197,1.12,1.1,0.667,0.306,0.169,0.222,0.233,0.198,0.2,0.17,0.962,0.845,0.573,0.278,0.202
NCI-H1355,0.589,0.522,0.525,0.204,0.177,0.884,0.923,0.633,0.205,0.16,0.904,0.875,0.65,0.27,0.197,0.791,0.8,0.394,0.22,0.154
NCI-H1395,0.667,0.588,0.442,0.385,0.321,1.12,1.12,0.935,0.459,0.471,0.725,0.766,0.574,0.413,0.353,1.18,1.02,0.716,0.509,0.488
NCI-H1437,0.774,0.606,0.42,0.283,0.213,1.02,0.892,0.498,0.282,0.144,0.28,0.261,0.235,0.231,0.166,0.951,0.775,0.365,0.15,0.104
NCI-H1651,0.517,0.461,0.325,0.118,0.135,1.01,0.832,0.517,0.14,0.2,0.509,0.495,0.339,0.199,0.173,0.843,0.774,0.451,0.217,0.22

# Reference: the supplement of paper PMC10307832
